Measurements taken from ChEMBL document CHEMBL1909046, “DrugMatrix in vitro pharmacology data”.

Tests used:
[1] = target: Prostaglandin G/H synthase 1 (Homo sapiens, UniProt P23219); assay: biochemical; type: tissue-based, Platelet; conditions: platelet;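 note: inhibition of COX-1 enzyme activity, with arachidonic acid supplied as substrate; in other assays of this panel Not Active means under 50% inhibition at 10 µM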
Acetylcholinesterase = Acetylcholinesterase (Homo sapiens, UniProt P22303); assay: DRUGMATRIX: Acetylcholinesterase enzyme inhibition (substrate: acetylthiocholine); type: cell-based, HEK293; conditions: hek293; Not Active = under 50% inhibition at 10 µM
[2] = DRUGMATRIX: ATPase, Na+/K+ enzyme inhibition (substrate: ATP); type: tissue-based, Sus scrofa, Heart; conditions: Not Active = under 50% inhibition at 10 µM
[3] = target: T1, Type-2 angiotensin II receptor (Homo sapiens, UniProt P50052); type: cell-based; conditions: cho-k1; note: in other assays of this panel Not Active means under 50% inhibition at 10 µM
T1 sequence (P50052 whole entry): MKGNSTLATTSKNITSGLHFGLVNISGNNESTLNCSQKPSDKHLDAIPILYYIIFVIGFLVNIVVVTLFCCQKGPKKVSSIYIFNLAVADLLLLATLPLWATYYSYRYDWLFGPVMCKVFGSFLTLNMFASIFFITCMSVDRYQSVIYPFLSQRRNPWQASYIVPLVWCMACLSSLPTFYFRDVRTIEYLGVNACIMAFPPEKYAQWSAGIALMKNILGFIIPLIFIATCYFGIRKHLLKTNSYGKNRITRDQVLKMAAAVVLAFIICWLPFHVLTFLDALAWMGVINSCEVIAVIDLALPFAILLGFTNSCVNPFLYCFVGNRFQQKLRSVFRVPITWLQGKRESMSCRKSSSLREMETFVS

[4] = target: Delta-type opioid receptor (Homo sapiens, UniProt P41143); type: cell membranes, HEK293, Membrane; conditions: hek293; note: in other assays of this panel Not Active means under 50% inhibition at 10 µM
[5] = DRUGMATRIX: Calcium Channel Type L, Phenylalkylamine radioligand binding (ligand: [3H] (-)-Desmethoxyverapamil (D-888)); type: cell membranes, Rattus norvegicus, Wistar, Brain, Membrane; conditions: Not Active = under 50% inhibition at 10 µM

Prostaglandin G/H synthase 1, sequence (P23219 whole entry): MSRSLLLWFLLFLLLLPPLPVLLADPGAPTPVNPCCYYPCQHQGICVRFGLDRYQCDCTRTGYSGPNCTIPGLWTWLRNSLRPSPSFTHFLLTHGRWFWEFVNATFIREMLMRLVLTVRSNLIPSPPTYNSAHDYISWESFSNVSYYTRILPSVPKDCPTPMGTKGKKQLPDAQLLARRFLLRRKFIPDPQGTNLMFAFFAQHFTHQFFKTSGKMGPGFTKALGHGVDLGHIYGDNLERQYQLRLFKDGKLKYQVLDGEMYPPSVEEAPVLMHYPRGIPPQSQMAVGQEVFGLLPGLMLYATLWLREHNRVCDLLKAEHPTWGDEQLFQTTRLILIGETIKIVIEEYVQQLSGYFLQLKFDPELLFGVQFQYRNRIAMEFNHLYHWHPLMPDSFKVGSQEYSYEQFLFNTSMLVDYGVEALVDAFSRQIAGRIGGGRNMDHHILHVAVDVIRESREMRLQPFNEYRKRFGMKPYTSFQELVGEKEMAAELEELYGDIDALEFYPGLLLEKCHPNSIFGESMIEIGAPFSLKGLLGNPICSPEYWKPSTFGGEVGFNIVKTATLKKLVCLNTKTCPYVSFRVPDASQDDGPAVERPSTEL
Acetylcholinesterase, sequence (P22303 whole entry): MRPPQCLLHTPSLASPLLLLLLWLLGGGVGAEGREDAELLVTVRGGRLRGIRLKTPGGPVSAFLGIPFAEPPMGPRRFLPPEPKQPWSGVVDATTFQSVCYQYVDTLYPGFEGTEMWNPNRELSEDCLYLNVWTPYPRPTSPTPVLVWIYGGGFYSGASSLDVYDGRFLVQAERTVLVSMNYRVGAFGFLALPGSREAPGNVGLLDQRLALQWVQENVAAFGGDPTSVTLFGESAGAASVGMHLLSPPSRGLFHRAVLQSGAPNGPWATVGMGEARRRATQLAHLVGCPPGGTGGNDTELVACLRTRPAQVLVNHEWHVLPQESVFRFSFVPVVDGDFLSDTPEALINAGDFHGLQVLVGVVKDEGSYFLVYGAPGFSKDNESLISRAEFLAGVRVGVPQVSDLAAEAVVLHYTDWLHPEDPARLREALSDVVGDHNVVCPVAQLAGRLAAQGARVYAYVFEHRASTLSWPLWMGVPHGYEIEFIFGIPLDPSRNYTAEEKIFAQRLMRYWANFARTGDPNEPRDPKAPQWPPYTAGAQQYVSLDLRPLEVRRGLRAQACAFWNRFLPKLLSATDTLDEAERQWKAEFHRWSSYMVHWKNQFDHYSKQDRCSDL
Delta-type opioid receptor, sequence (P41143 whole entry): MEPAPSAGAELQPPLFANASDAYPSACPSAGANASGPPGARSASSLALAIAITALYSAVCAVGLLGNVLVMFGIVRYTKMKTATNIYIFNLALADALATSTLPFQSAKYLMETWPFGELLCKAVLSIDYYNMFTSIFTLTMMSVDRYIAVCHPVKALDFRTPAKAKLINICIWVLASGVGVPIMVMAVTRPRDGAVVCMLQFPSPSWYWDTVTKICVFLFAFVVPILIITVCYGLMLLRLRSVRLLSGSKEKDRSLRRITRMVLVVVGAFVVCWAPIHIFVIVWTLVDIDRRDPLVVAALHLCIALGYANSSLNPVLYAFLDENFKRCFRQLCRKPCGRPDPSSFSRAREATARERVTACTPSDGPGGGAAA

CC(C)(Oc1ccc(C2CCCc3ccccc32)cc1)C(=O)O (stereo unspecified) [NAFENOPIN]
Not Active: IC50 [1] | IC50 (Acetylcholinesterase) | IC50 [2] | Ki [2] | IC50 [3] | IC50 [4] | IC50 [5] | Ki [5]

CC(C)[C@H]1CC[C@H](C(=O)N[C@H](Cc2ccccc2)C(=O)O)CC1 [NATEGLINIDE]
Not Active: IC50 [1] | IC50 (Acetylcholinesterase) | IC50 [2] | Ki [2] | IC50 [3] | IC50 [4] | IC50 [5] | Ki [5]

CCN[C@@H]1C[C@H](N)[C@@H](O[C@H]2OC(CN)=CC[C@H]2N)[C@H](O)[C@H]1O[C@H]1OC[C@](C)(O)[C@H](NC)[C@H]1O [NETILMICIN]
Not Active: IC50 [1] | IC50 (Acetylcholinesterase) | IC50 [2] | Ki [2] | IC50 [3] | IC50 [4] | IC50 [5] | Ki [5]

COC(=O)C1=C(C)NC(C)=C(C(=O)OCC(C)C)C1c1ccccc1[N+](=O)[O-] (stereo unspecified) [NISOLDIPINE]
Not Active: IC50 [1] | IC50 (Acetylcholinesterase) | IC50 [2] | Ki [2] | IC50 [3] | IC50 [4] | IC50 [5] | Ki [5]

CCOC(=O)C1=C(C)NC(C)=C(C(=O)OC)C1c1cccc([N+](=O)[O-])c1 (stereo unspecified) [NITRENDIPINE]
Not Active: IC50 [1] | IC50 (Acetylcholinesterase) | IC50 [2] | Ki [2] | IC50 [3] | IC50 [4] | IC50 [5] | Ki [5]

C#C[C@]1(OC(C)=O)CC[C@H]2[C@@H]3CCC4=CC(=O)CC[C@@H]4[C@H]3CC[C@@]21C [NORETHINDRONE ACETATE]
Not Active: IC50 [1] | IC50 (Acetylcholinesterase) | IC50 [2] | Ki [2] | IC50 [3] | IC50 [4] | IC50 [5] | Ki [5]

COc1ccc2[nH]c([S+]([O-])Cc3ncc(C)c(OC)c3C)nc2c1 (stereo unspecified) [OMEPRAZOLE]
Not Active: IC50 [1] | IC50 (Acetylcholinesterase) | IC50 [2] | Ki [2] | IC50 [3] | IC50 [4] | IC50 [5] | Ki [5]

Cc1nccn1CC1CCc2c(c3ccccc3n2C)C1=O (stereo unspecified) [ONDANSETRON]
Not Active: IC50 [1] | IC50 (Acetylcholinesterase) | IC50 [2] | Ki [2] | IC50 [3] | IC50 [4] | IC50 [5] | Ki [5]

CCn1cc(C(=O)O)c(=O)c2cc(F)c(N3CCN(C)CC3)cc21 [PEFLOXACIN]
Not Active: IC50 [1] | IC50 (Acetylcholinesterase) | IC50 [2] | Ki [2] | IC50 [3] | IC50 [4] | IC50 [5] | Ki [5]

CCCCOc1ccc(OCCCN2CCOCC2)cc1 [PRAMOXINE]
Not Active: IC50 [1] | IC50 (Acetylcholinesterase) | IC50 [2] | Ki [2] | IC50 [3] | IC50 [4] | IC50 [5] | Ki [5]

O=C(C1CCCCC1)N1CC(=O)N2CCc3ccccc3C2C1 (stereo unspecified) [PRAZIQUANTEL]
Not Active: IC50 [1] | IC50 (Acetylcholinesterase) | IC50 [2] | Ki [2] | IC50 [3] | IC50 [4] | IC50 [5] | Ki [5]

CCN(CC)CCOC(=O)c1ccc(N)cc1 [PROCAINE]
Not Active: IC50 [1] | IC50 (Acetylcholinesterase) | IC50 [2] | Ki [2] | IC50 [3] | IC50 [4] | IC50 [5] | Ki [5]

CCCN(CCC)C(=O)C(CCC(=O)O)NC(=O)c1ccccc1 (stereo unspecified) [PROGLUMIDE]
Not Active: IC50 [1] | IC50 (Acetylcholinesterase) | IC50 [2] | Ki [2] | IC50 [3] | IC50 [4] | IC50 [5] | Ki [5]

NC(=O)c1cnccn1 [PYRAZINAMIDE]
Not Active: IC50 [1] | IC50 (Acetylcholinesterase) | IC50 [2] | Ki [2] | IC50 [3] | IC50 [4] | IC50 [5] | Ki [5]

OC(CCN1CCCCC1)(c1ccccc1)C1CCCCC1 (stereo unspecified) [TRIHEXYPHENIDYL]
Not Active: IC50 [1] | IC50 (Acetylcholinesterase) | IC50 [2] | Ki [2] | IC50 [3] | IC50 [4] | IC50 [5] | Ki [5]

Cc1cc2cc3c(C)cc(=O)oc3c(C)c2o1 [TRIOXSALEN]
Not Active: IC50 [1] | IC50 (Acetylcholinesterase) | IC50 [2] | Ki [2] | IC50 [3] | IC50 [4] | IC50 [5] | Ki [5]

CCCC(CCC)C(=O)O [VALPROIC ACID]
Not Active: IC50 [1] | IC50 (Acetylcholinesterase) | IC50 [2] | Ki [2] | IC50 [3] | IC50 [4] | IC50 [5] | Ki [5]

CCC1=C[C@@H]2CN(C1)Cc1c([nH]c3ccccc13)[C@@](C(=O)OC)(c1cc3c(cc1OC)N(C)[C@H]1[C@@](O)(C(=O)OC)[C@H](OC(C)=O)[C@]4(CC)C=CCN5CC[C@]31[C@@H]54)C2 [VINORELBINE]
Not Active: IC50 [1] | IC50 (Acetylcholinesterase) | IC50 [2] | Ki [2] | IC50 [3] | IC50 [4] | IC50 [5] | Ki [5]

CADMIUM DICHLORIDE
Not Active: IC50 [1] | Ki [1] | IC50 (Acetylcholinesterase) | Ki (Acetylcholinesterase) | IC50 [2] | Ki [2] | IC50 [3] | Ki [3] | IC50 [4] | Ki [4] | IC50 [5] | Ki [5]
